# According to US20230073755A1, “USE OF IGF1 IN COMBINATION WITH IGFEC24 IN PREPARATION OF MEDICINE FOR PROMOTING TISSUE REPAIR AND REGENERATION” (Chongqing University, priority 2020, published 2023):
# Legend:
# [1] = test system: cardiomyocytes; assay: Cardiomyocyte proliferation effect assay (Edu / cTnI immunofluorescence of heart tissue), adult female SD rats; format: in vivo; conditions: tail vein injection 7 consecutive days, IGF1-24 100 μg/kg or molar equivalents, FIG. 1-2
# Method: In certain embodiments, adult female SD rats were divided into five groups: PBS group, IGF1 group, IGF1Ec group, IGF1-24 group, and IGF1+IGF1Ec24 peptide group, with three rats in each group. The rats in each group were distinguished by ear clipping for subsequent protein injection according to the different body weights of the rats.
# The rats in each group were injected with PBS, IGF1, IGF1Ec24 peptide, IGF1Ec and IGF1-24 for 7 consecutive days. Recombinant protein IGF1-24 was injected at 100 μg/kg, and the injection of the remaining proteins in each group was converted according to the molar amount of IGF1-24 injection as follows: 90 μg/kg for IGF1, 8.9 μg/kg for IGF1Ec24 peptide, 104 μg/kg for IGF1Ec.
# Before protein injection, the rats were first weighed with a bench scale, and their body weight and the amount of protein injected were recorded and converted; then the rats were fixed with a rat fixator and their tails were exposed, and their tails were soaked in hot water for 1-2 min to stretch the tail vessels and facilitate the search for blood vessels; then the tails were wiped with alcohol cotton balls; after the tail vein was identified, the needle was inserted into the vessel at a 45° angle to the tail vein and the drug was slowly pushed in; the needle before pressing the wound with cotton to stop the bleeding, and then pull out the needle. […]
# [2] = test system: neuronal cells; assay: Neuroproliferation and neural differentiation (Edu / DCX, hippocampal dentate gyrus), 13-month-old C57 mice; format: in vivo
# Method: Female 13-month-old mice were divided into 2 groups, PBS group and IGF1-24 group, with 6 mice in each group, and the mice in each group were distinguished by ear tags for subsequent protein injection according to the different body weights of the mice. The mice in each group were injected with PBS and IGF1-24 for 7 consecutive days, and the recombinant protein IGF1-24 was injected at 100 μg/kg. After seven days of protein injection, Edu solution at a concentration of […] was injected intraperitoneally for seven consecutive days, so that the final total dose of each mouse reached 50 mg/kg. […]
# Remove frozen sections from −20° C. and restore to room temperature; wash 3 times 10 min/time with PBS; permeabilize sections in 0.5% Triton for 30 min; wash 3 times 10 min/time with PBS; draw circles around the tissue with an immunohistochemistry pen and add 5% BSA dropwise for 1 h; aspirate 5% BSA and incubate at 4° C. with double cortin DCX primary antibody (1:500) dropwise overnight; PBS wash 3 times for 10 min/time; incubate FITC secondary antibody for 1 h; PBS wash 3 times for 10 min/time; incubate Edu dye for 1 h; PBS wash 3 times for 10 min/time; incubate DAPI for 10 min; PBS wash 3 times for 10 min/time; observe fluorescence under fluorescence microscope. […]
substance,measurement,setting,value
"IGF1-24: 97 amino acids: amino-terminal 70 identical to IGF1, carboxyl-terminal 24 identical to IGFEc24 peptide, joined by three Gly linkers (SEQ ID NO: 4)",number of Edu-positive cardiomyocytes,[1],2.6%
same,immature neuronal cells (neural differentiation assay),"[2]; PBS group 0.68%, FIG. 7",1.01%
same,proliferation of neuronal cells,"[2]; hippocampal dentate gyrus, PBS group 0.24%, FIG. 5-6",0.47%
